Assay [1] has as its system T. gondii RH strain with L162Q substitution in TgMAPKL1. Put plainly: Proliferation EC50, β-galactosidase readout, TgMAPKL1 L162Q. Type of assay: cell-based. The note with it: for EC50: Toxoplasma gondii, 72 h, read-out: T. gondii EC50 (±SD) MAPKL1 L162Q. The protocol:
Human Foreskin Fibroblasts (HFF) were cultured in DMEM, with D-glucose (4.5 g/L), L-glutamine, and sodium pyruvate (110 mg/L) (Gibco) that were further supplemented with 10% Fetal Clone 1 serum (FCS)(HyClone), 50 U/mL penicillin (Gibco), […] streptomycin (Gibco), and 1× GlutaMax (Gibco). HFF cells were cultured in T25 flasks (Corning) in a humidified incubator at 37 °C and 5% CO2. For culture, media was replaced with DMEM, as described above, with 1% FCS. Mutant strains were created as described in.
An RH strain of with an L162Q substitution in TgMAPKL1 introduced by CRISPR/Cas9 site directed mutagenesis into a clone expressing β-galactosidase was used to determine the EC50s for proliferation. Compounds were dissolved in DMSO and serially diluted 4-fold across the first 11 columns of a 96 well plate from the highest concentration of 25 μM leaving the final column with no drugs. was added to the first 11 columns of the 96 well plate at 4000 parasites per well. The last column contained no compound. Plates were incubated 72 h at 37 °C and 5% CO2. were quantified by spectrophotometrically measuring the β-galactosidase concentration of each well after cell lysis and exposure to chlorophenol red β-galactopyranose (Sigma-Aldrich, St. Louis, MO) substrate. Each compound was tested at least three times in quadruplicate.

The target in the next assay is T1, PfCDPK1 (Plasmodium falciparum, UniProt P62344).
T1 construct: made in house
Put plainly: CDPK enzyme activity assay, PfCDPK1. The class given is biochemical, P. falciparum. As to the method: (§1) Recombinant expression of PfCDPK1, PfCDPK4, TgCDPK1 WT, TgCDPK1-G128M, CpCDPK1 and CpCDPK1-G152 M were purified as previously described. […] These reactions were performed in a buffer composed of 1 mM EGTA (pH 7.2), 10 mM MgCl2, 20 mM HEPES pH 7.5 (KOH), 0.1% BSA. The reactions were initiated with addition of 10 μM ATP and 2 mM CaCl2 as enzyme activation reagent. Reaction plates were incubated for 90 min with 90 rpm agitation at 30 °C. […] KinaseGlo (Promega) luminescence-based assay in which luminescence is inversely related to kinase activity and […] was used as previously described.

The target of another assay is T2, TgCDPK1 WT (Toxoplasma gondii, UniProt Q9BJF5).
T2 sequence (Q9BJF5 1-507): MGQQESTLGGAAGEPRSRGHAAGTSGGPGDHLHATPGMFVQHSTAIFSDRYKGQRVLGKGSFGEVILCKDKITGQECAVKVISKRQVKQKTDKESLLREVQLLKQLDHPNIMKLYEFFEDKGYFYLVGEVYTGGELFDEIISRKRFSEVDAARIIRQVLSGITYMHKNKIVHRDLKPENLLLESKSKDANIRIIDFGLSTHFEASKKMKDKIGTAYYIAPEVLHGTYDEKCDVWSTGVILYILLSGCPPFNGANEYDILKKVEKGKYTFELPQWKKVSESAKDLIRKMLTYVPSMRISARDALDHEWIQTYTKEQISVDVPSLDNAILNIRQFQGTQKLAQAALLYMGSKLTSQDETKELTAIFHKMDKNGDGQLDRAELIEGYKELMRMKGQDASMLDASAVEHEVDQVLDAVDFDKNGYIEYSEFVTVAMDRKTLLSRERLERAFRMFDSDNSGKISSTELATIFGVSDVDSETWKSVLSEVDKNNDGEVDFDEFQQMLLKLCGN
Put plainly: biochemical. The protocol:
as §1

Another assay addresses PfPKG T618Q (Plasmodium falciparum, UniProt Q8I719, T618Q). The assay is described as follows: PfPKG enzyme activity assay, T618Q gatekeeper mutant. The class given is biochemical, P. falciparum. The protocol: Direct inhibition of recombinant PfPKG phosphorylation activity was carried out using a previously described nonradioactive assay. The assay evaluates PfPKG activity based on changes in initial ATP concentration via luminescence after enzyme phosphorylation of peptide substrate PKCtide ([…]) (SignalChem, Richmond, BC Canada). Enzyme kinase activity was measured in the presence of 26 μM PKCtide; 50.1 nM PfPKG; and 20 μM cGMP in a buffered solution containing 20 mM β-glycerol-phosphate, 20 mM MgCl2, 25 mM HEPES pH 7.5 (KOH), 0.1% BSA and 2 mM DTT. The reaction was activated by the addition of 10 μM ATP with incubation at 30 °C and 90 rpm agitation for 120 min. […] Each assay plate contained reaction wells with no enzyme, no PKCtide peptide substrate and no cGMP as internal controls.

Assay [2] relates to strain UGA1 expressing nanoluciferase, replication in HCT-8 cells. The assay is described as follows: Growth inhibition assay in HCT-8 cells (nanoluciferase strain UGA1). Type of assay: cell-based, C. parvum. As to conditions: Cryptosporidium parvum, 48 h, nanoluciferase readout, (±SD), read-out: EC50 of replication measured in HCT-8 cells. As to the method:
strain UGA1 transfected to express nanoluciferase (Nluc) and obtained from the University of Arizona after propagation in newborn calves. HCT-8 cells were added to a 384-well plate and allowed to grow for 48 h to reach 75–90% confluence. The medium was removed, and test compounds were added in serial dilutions prior to the addition of 1000 oocysts per well in RPMI 1640 medium supplemented with 10% heat inactivated FBS and 1% penicillin streptomycin. Plates were incubated for 48 h; Nano-Glo luciferase reagent (Promega, Madison, WI) was then added, and the plates were read on an EnVision multilabel plate reader (PerkinElmer, Waltham, MA). EC50 curves were calculated as previously described using Prism v6.07 (GraphPad Software, La Jolla, CA).

Another assay deals with T3, PfCDPK4 (Plasmodium falciparum, UniProt Q8IBS5).
T3 construct: made in house
The assay is described as follows: CDPK enzyme activity assay, PfCDPK4. The class given is biochemical, P. falciparum. The protocol: as §1

SMILES strings stand for the structures. Read-outs that look alike come from different tables or passages of the source.

T3 sequence (Q8IBS5 whole entry): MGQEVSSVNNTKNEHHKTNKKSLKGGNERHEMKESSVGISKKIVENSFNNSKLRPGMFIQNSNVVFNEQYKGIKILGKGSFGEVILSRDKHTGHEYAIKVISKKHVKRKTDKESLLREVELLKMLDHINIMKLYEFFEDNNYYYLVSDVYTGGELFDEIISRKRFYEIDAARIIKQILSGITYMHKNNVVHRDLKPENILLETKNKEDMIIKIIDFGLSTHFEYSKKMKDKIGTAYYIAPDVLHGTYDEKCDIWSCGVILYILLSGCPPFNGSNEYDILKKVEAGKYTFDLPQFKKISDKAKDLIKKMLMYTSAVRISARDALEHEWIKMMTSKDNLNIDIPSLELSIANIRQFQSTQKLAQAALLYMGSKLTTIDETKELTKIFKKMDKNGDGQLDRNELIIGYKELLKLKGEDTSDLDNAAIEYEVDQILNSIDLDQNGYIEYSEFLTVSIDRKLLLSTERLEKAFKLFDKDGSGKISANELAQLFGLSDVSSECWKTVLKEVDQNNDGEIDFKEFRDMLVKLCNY
Chain of PfPKG T618Q (Q8I719 whole entry T618Q): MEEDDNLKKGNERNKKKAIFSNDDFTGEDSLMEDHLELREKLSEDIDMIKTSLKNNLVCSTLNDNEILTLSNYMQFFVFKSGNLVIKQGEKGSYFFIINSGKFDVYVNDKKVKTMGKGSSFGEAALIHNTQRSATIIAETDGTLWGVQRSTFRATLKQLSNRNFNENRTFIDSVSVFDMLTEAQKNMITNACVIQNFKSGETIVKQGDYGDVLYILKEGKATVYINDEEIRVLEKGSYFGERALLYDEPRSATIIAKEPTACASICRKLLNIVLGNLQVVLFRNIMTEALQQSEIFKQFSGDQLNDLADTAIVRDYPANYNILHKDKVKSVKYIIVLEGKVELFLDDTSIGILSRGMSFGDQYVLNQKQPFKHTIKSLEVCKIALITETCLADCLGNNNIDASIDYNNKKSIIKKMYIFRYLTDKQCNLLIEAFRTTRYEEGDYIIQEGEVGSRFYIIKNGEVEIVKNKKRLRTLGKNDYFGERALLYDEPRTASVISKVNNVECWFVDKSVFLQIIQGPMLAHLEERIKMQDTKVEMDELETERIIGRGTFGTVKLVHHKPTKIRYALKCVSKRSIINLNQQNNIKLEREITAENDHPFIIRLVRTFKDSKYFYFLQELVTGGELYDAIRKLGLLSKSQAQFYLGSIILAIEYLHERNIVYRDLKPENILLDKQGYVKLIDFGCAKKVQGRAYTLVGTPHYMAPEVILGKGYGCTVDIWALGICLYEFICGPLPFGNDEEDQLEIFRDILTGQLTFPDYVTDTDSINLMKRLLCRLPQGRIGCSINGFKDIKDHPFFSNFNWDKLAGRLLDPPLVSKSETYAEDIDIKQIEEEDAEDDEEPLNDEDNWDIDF
T1 sequence (P62344 whole entry): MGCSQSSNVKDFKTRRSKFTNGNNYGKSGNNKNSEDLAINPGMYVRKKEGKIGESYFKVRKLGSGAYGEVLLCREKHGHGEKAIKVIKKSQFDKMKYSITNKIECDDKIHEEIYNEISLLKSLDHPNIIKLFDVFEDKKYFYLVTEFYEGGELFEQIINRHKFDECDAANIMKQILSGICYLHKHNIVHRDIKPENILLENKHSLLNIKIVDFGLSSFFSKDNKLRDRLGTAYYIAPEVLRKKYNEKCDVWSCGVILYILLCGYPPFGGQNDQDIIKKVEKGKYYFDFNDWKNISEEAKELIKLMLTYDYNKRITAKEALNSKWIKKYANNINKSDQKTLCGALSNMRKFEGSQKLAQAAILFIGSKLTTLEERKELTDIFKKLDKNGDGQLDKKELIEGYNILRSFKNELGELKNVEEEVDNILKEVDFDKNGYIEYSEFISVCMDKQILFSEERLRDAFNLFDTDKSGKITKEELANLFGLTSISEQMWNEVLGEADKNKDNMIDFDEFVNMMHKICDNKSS

As to `O=C(c1nccs1)N1CC[C@@H](Nc2nccc(-n3cc(C4CC4)nc3-c3ccccc3)n2)C1` [(R)-RY-1-165], the “increase in EC50 against TgMAPKL-1 L162Q parasites versus parental strain” value in assay [1] was “did not demonstrate a significant change in EC50”. For the same compound, the EC50 – broadly, the concentration giving half of the maximal effect – in assay [1] is 560 nM; in assay [2] it was 17900 nM. Besides, the IC50 (as a rule, the midpoint of a concentration-inhibition curve) was 10100 nM at PfCDPK1, 50 nM against TgCDPK1 WT, greater than 10000 nM against PfPKG T618Q and 1700 nM at PfCDPK4. In addition, at TgCDPK1 WT (TgCDPK1 versus PfCDPK4, 90 min), the “IC50 for TgCDPK1 lower than for PfCDPK4” value was “over 30 fold”.
On to `O=C(c1nccs1)N1CC[C@@H](Nc2nccc(-n3cc(C4CC4)nc3-c3cccc(Cl)c3)n2)C1` [(R)-RY-1-185], for which the “increase in EC50 against TgMAPKL-1 L162Q parasites versus parental strain” value in assay [1] is given as “approximately 2.75 fold”. The EC50 in assay [1] is 330 nM; in assay [2], 10800 nM. Further, the IC50 on PfCDPK1 (recombinant enzyme, mean ± SD, n = 2–3 experiments, read-out: enzyme IC50 (±SD) PfCDPK1 WT) was 6690 nM; against TgCDPK1 WT it was 60 nM; on PfPKG T618Q, greater than 10000 nM; against PfCDPK4, 2210 nM.
